A short description of the first data set: log P (neutral), HPLC on reversed-phase column (C 18), LC-MS neutral range. Type of data set: physicochemical. Conditions: HPLC reversed-phase C 18, 55° C., pH 7.8, ammonium hydrogencarbonate/acetonitrile. How it is done:
Temperature: 55° C. […] Called log P (neutral) in the table.
Take `CCS(=O)(=O)c1ccc(-n2cncn2)nc1-c1nc2cc(C(F)(F)F)nnc2n1C` [Example I-43]: the “log P (neutral)” value is 2.08.
As for `CCS(=O)(=O)c1ccc(-n2cncn2)nc1-c1cn2cnc(C(F)(F)F)cc2n1` [Example I-28], the “log P (neutral)” value amounted to 2.19.
Take `CCS(=O)(=O)c1ccc(-n2cc(Cl)cn2)nc1-c1nc2cc(C(F)(F)F)cnc2o1` [Example I-41]: the “log P (neutral)” value is 4.01.
Regarding `CCS(=O)(=O)c1ccc(-n2cccn2)nc1-c1cn2cnc(C(F)(F)F)cc2n1` [Example I-46], the “log P (neutral)” value came out at 2.58.
Regarding `CCS(=O)(=O)c1ccc(-n2nccn2)nc1-c1nc2cc(C(F)(F)F)nnc2n1C` [Example I-44], the “log P (neutral)” value stood at 2.21.
Turning to `CCS(=O)(=O)c1ccc(-n2ccc(C(F)(F)F)n2)nc1-c1nc2cc(C(F)(F)F)cnc2o1` [Example I-42], the “log P (neutral)” value came out at 4.17.
In the case of `CCS(=O)(=O)c1ccc(NC2COC2)nc1-c1nc2cc(C(F)(F)F)cnc2n1C` [Example I-26], the “log P (neutral)” value is reported as 2.27.

Staying with this data set, now noted: pH 7.8.
In the case of `CCS(=O)(=O)c1ccc(-n2ccnc2)nc1-c1cn2cnc(C(F)(F)F)cc2n1` [Example I-45], the “log P (neutral)” value came out at 2.07.

Staying with this data set, now noted: reversed-phase HPLC column (C 18), pH 7.8, HPLC reversed-phase C 18, 55° C., pH 7.8, ammonium hydrogencarbonate/acetonitrile.
What is called chromatographic logP is lipophilicity estimated from chromatographic retention. In turn, `CCS(=O)(=O)c1ccc(F)nc1-c1nc2cc(C(F)(F)F)cnc2n1C` [XIII-2, 2-[3-(Ethylsulphonyl)-6-fluoropyridin-2-yl]-3-methyl-6-(trifluoromethyl)-3H-imidazo[4,5-b]pyridine] displayed a chromatographic logP of 2.8.
Take `CCS(=O)(=O)c1ccc(C(=O)OC)nc1-c1nc2cc(C(F)(F)F)nnc2n1C` [LXXX-2, Methyl 5-(ethylsulphonyl)-6-[7-methyl-3-(trifluoromethyl)-7H-imidazo[4,5-c]pyridazin-6-yl]pyridine-2-carboxylate]: the chromatographic logP turned out to be 2.19.
`CCS(=O)(=O)c1ccc(C(=O)OC)nc1-c1nc2cc(C(F)(F)F)cnc2n1C` [LXXX-1, Methyl 5-(ethylsulphonyl)-6-[3-methyl-6-(trifluoromethyl)-3H-imidazo[4,5-b]pyridin-2-yl]pyridine-2-carboxylate] displayed a chromatographic logP of 2.61.
`Cn1c(-c2nc(Cl)ccc2Cl)nc2cc3c(cc21)OC(F)(F)O3` [IX-3, 6-(3,6-Dichloro-2-pyridyl)-2,2-difluoro-7-methyl-[1,3]dioxolo[4,5-f]benzimidazole] registered a chromatographic logP of 3.22.
In the case of `CCSc1ccc(Cl)nc1-c1nc2cc3c(cc2n1C)OC(F)(F)O3` [XI-3, 6-(6-Chloro-3-ethylsulphanyl-2-pyridyl)-2,2-difluoro-7-methyl-[1,3]dioxolo[4,5-f]benzimidazole], the chromatographic logP came out at 3.8.
For the molecule `CCSc1ccc(SCC)c(-c2cn3cc(C(F)(F)F)ncc3n2)n1` [LXXI-1, 2-[3,6-Bis(ethylsulphanyl)pyridin-2-yl]-6-(trifluoromethyl)imidazo[1,2-a]pyrazine], the chromatographic logP was determined as 4.
Consider `CCSc1ccc(F)nc1-c1nc2cc(C(F)(F)F)cnc2n1C` [XI-2, 2-[3-(Ethylsulphanyl)-6-fluoropyridin-2-yl]-3-methyl-6-(trifluoromethyl)-3H-imidazo[4,5-b]pyridine], for which the chromatographic logP was determined as 3.45.
Same read-out and setting: the same measure for `COC(=O)c1ccc(Cl)c(-c2nc3cc(C(F)(F)F)cnc3n2C)n1` [LXXVIII-1, Methyl 5-chloro-6-[3-methyl-6-(trifluoromethyl)-3H-imidazo[4,5-b]pyridin-2-yl]pyridine-2-carboxylate]: 2.7; for `CCSc1ccc(Cl)nc1-c1nc2cc(C(F)(F)F)nnc2n1C` [XI-6, 6-(6-Chloro-3-ethylsulphanyl-2-pyridyl)-7-methyl-3-(trifluoromethyl)imidazo[4,5-c]pyridazine]: 3.28.
As for `CCS(=O)(=O)c1ccc(S(=O)(=O)CC)c(-c2cn3cnc(C(F)(F)F)cc3n2)n1` [LXXIII-1, 2-[3,6-Bis(ethylsulphonyl)pyridin-2-yl]-7-(trifluoromethyl)imidazo[1,2-c]pyrimidine], the chromatographic logP was found to be 2.28.
The molecule `CCS(=O)(=O)c1ccc(-n2cc(Cl)cn2)nc1-c1nc2cc(C(F)(F)F)nnc2n1C` [Example I-35, 6-[6-(4-Chloropyrazol-1-yl)-3-ethylsulphonyl-2-pyridyl]-7-methyl-3-(trifluoromethyl)imidazo[4,5-c]pyridazine] displayed a chromatographic logP of 3.38.
Take `CCS(=O)(=O)c1ccc(-n2cc(Cl)cn2)nc1-c1cn2cc(C(F)(F)F)ncc2n1` [Example I-18, 2-[6-(4-Chloro-1H-pyrazol-1-yl)-3-(ethylsulphonyl)pyridin-2-yl]-6-(trifluoromethyl)imidazo[1,2-a]pyrazine]: the chromatographic logP is 3.44.
As for `CCS(=O)(=O)c1ccc(C(=O)NC)nc1-c1nc2cc(C(F)(F)F)nnc2n1C` [Example I-39, 5-(Ethylsulphonyl)-N-methyl-6-[7-methyl-3-(trifluoromethyl)-7H-imidazo[4,5-c]pyridazin-6-yl]pyridine-2-carboxamide], the chromatographic logP amounted to 1.96.
As to `CCSc1ccc(Br)nc1C(=O)O` [6-Bromo-3-(ethylsulphanyl)pyridine-2-carboxylic acid], the chromatographic logP came to 1.79.
On the same count and under the same terms, in the case of `CCS(=O)(=O)c1ccc(S(=O)(=O)CC)c(-c2cn3cc(C(F)(F)F)ncc3n2)n1` [LXXIII-2, 2-[3,6-Bis(ethylsulphonyl)pyridin-2-yl]-6-(trifluoromethyl)imidazo[1,2-a]pyrazine] it was 2.23.
As to `CC(=O)c1nc(F)ccc1F` [1-(3,6-Difluoropyridin-2-yl)ethanone], the chromatographic logP was 1.24.
Molecule `Fc1ccc(F)c(-c2cn3cnc(C(F)(F)F)cc3n2)n1` [IX-5, 2-(3,6-Difluoropyridin-2-yl)-7-(trifluoromethyl)imidazo[1,2-c]pyrimidine] returned a chromatographic logP of 2.02.
Molecule `CCSc1ccc(Br)nc1C(=O)Nc1cc(C(F)(F)F)cnc1Cl` [LXIX-1, 6-Bromo-N-[2-chloro-5-(trifluoromethyl)pyridin-3-yl]-3-(ethylsulphanyl)pyridine-2-carboxamide] had a chromatographic logP of 5.27.
Still for that read-out and setting: the same measure for `Cn1c(-c2nc(F)ccc2F)nc2cc(C(F)(F)F)cnc21` [IX-2, 2-(3,6-Difluoropyridin-2-yl)-3-methyl-6-(trifluoromethyl)-3H-imidazo[4,5-b]pyridine]: 2.72; for `CCS(=O)(=O)c1ccc(Cl)nc1-c1nc2cc3c(cc2n1C)OC(F)(F)O3` [XIII-3, 6-(6-Chloro-3-ethylsulphonyl-2-pyridyl)-2,2-difluoro-7-methyl-[1,3]dioxolo[4,5-f]benzimidazole]: 3.2.
`CCS(=O)(=O)c1ccc(NC(C)=O)nc1-c1nc2cc(C(F)(F)F)cnc2o1` [Example I-19, N-{5-(Ethylsulphonyl)-6-[6-(trifluoromethyl) [1,3]oxazolo[5,4-b]pyridin-2-yl]pyridin-2-yl}acetamide] had a chromatographic logP of 2.44.
As for `Cn1c(-c2nc(Cl)ccc2Cl)nc2cc(C(F)(F)F)nnc21` [IX-7, 6-(3,6-Dichloro-2-pyridyl)-7-methyl-3-(trifluoromethyl)imidazo[4,5-c]pyridazine], the chromatographic logP stood at 2.65.
`CCS(=O)(=O)c1ccc(Cl)nc1-c1nc2cc(C(F)(F)F)nnc2n1C` [XIII-5, 6-(6-Chloro-3-ethylsulphonyl-2-pyridyl)-7-methyl-3-(trifluoromethyl)imidazo[4,5-c]pyridazine] registered a chromatographic logP of 2.6.
